# System: UMSCs
# Assay: Effect of GCV on plain UMSCs
# Assay type: cell-based, human
# Conditions: GCV alone on unmodified UMSCs
smiles,measurement,value
"Nc1nc(O)c2ncn(COC(CO)CO)c2n1 [GCV, ganciclovir]",cell proliferation of UMSCs,did not affect cell proliferation

# Reference: patent publication US11458171B2, “Engineering stem cells for cancer therapy” (CHINA MEDICAL UNIVERSITY, priority 2018, dated 2022)
